US6652890B2, “Tea catechins as cancer specific proliferation inhibitors” (Purdue Research Foundation, priority 1999, dated 2003)
“Also recorded” adds a separate entry of the source.

Tests used:
Format in all cases: cell-based
[1] = system: MCF-10A human mammary epithelial (non-cancer) cells; test: Effect on intact cells in culture (growth, morphology, DAPI)
[2] = system: BT-20 human mammary adenocarcinoma cells; test: as above
Protocol: BT-20 human breast adenocarcinoma cells were cultured in Eagle's minimal essential medium nonessential amino acids and Earle's balanced salts supplement with 10% fetal bovine serum. Media were renewed as for MCF-10A cells. […] The coverslips were rinsed and the cells fixed in methanol followed by addition of fluorescent dye 4′,6-diamidino-2-phenylindole (DAPI) as described (Wolvetang et al., 1994, FEBS Lett. 339:40-44). Cells were observed and photographed at a primary magnification of 400×.

[3] = system: CHO cells; test: Growth of CHO cells; settings: EGCg
[4] = target: T1, tNOX activity of HeLa S cells (Homo sapiens, UniProt Q16206); test: NADH oxidase of intact HeLa (HeLa S) cells
T1 construct: Response of the NADH oxidase of HeLa S cells to (−)-epigallocatechin gallate (EGCg) alone; endogenous in cells; methods say ATCC CCL2
T1 sequence (Q16206 1-610): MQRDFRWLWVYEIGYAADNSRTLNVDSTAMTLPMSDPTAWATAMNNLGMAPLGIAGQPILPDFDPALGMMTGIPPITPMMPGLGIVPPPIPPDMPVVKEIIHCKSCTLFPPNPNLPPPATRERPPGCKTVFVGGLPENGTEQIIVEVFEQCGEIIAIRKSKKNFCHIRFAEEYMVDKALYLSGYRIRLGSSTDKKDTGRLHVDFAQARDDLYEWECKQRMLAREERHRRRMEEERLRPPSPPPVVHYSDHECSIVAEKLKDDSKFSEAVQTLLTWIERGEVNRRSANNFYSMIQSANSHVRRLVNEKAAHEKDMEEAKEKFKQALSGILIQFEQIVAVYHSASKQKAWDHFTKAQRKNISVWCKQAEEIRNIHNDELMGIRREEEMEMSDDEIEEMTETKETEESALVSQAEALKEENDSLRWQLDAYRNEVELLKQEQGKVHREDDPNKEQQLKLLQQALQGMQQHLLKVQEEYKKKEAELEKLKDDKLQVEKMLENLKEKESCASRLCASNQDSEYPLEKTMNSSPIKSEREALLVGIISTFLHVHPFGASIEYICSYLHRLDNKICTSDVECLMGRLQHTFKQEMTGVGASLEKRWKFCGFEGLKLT
Protocol: HeLa (ATCC CCL2) cells were grown in 150 cm^2 flasks in Minimal Essential Medium (Gibco), pH 7.4, at 37° C. with 10% bovine calf serum (heat-inactivated), plus 50 mg/l gentamicin sulfate (Sigma). Cells were trypsinized with Sigma IX trypsin for 1 to 2 min and harvested by scraping and taken up in 140 mM NaCl, 5 mM KCl, 0.7 mM Na2HPO4 and 25 mM Tris, pH 7.4, to a final cell concentration of 0.1 g wet weight (gww) per ml.
NADH oxidase activity was determined as the disappearance of NADH measured at 340 nm in a reaction mixture containing 25 mM Tris-Mes buffer (pH 7.2), 1 mM KCN, and 150 μM NADH at 37° C. Activity was measured using a Hitachi U3210 spectrophotometer with stirring and continuous recording over two intervals of 5 min each. A millimolar extinction coefficient of 6.22 was used to determine specific activity.

[5] = 10 μM EGCg added at t=0, 96 h, FIG. 4
[6] = 10^−6 M EGCg twice daily for 96 h

EGCg concentration at which NOX activity was stimulated [4]: ≥ 10^−5 M
EGCg concentration for maximal inhibition of tNOX activity ([4]; EGCg alone, FIG. 12): 0.1 µM
Substance: (−) - epigallocatechin gallate [EGCg]
Fate of treated cells [1, 5]: quickly recovered and eventually grew normally; also recorded: recovered fully
Growth rate and cell diameters [1, 6]: unaffected or slightly increased
Response of the cell line ([1]; 10^−6 M EGCg, 72 h): no response
Growth of cells ([1]; EGCg, unaffected except at very high doses of 10^−4 M, FIG. 2C): unaffected; also recorded: much less affected
Fate of treated cells [2, 5]: did not recover and died; also recorded: stopped growing and died
Reduction of cell diameter [2, 6]: about 25%
Reduction of cell number [2, 6]: about 25%
Reduction of cell volume [2, 6]: 50%
Response of the cell line ([2]; 10^−6 M EGCg, 72 h): no response
Condensed chromatin (DAPI staining) ([2]; 10 or 50 μM EGCg, 96 h, FIG. 5): characteristic of apoptosis
Growth of CHO cells [3]: much less affected
